How the values were obtained:
Test in all cases: relative viability (nuclei count vs DMSO), 5 days (fraction); higher = more cells survive
TPCA-1 + Luminespib = compound: C1=CC(=CC=C1C2=CC(=C(S2)NC(=O)N)C(=O)N)F [TPCA-1] + CCNC(=O)c1noc(-c2cc(C(C)C)c(O)cc2O)c1-c1ccc(CN2CCOCC2)cc1 [Luminespib] (partner 0.01 µM)
Method in brief: (§1)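 Nuclei were stained with Hoechst during a one-step fixation (final 0.05% Triton X-100, 1% formaldehyde, 1 ug/ml Hoechst) carried out 5 days after dosing, then counted on 4× images. The cells, lung cancer lines in 1536-well plates, had been dosed by pin tool the day after seeding with one drug alone or a fixed anchor-drug dose plus five library-drug doses (not always all listed) in √10 steps. Relative viability is the nuclei count in treated wells divided by that in vehicle wells, and each value is the median of duplicate plates.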

TPCA-1 + Pictilisib = compound: C1=CC(=CC=C1C2=CC(=C(S2)NC(=O)N)C(=O)N)F [TPCA-1] + CS(=O)(=O)N1CCN(Cc2cc3nc(-c4cccc5[nH]ncc45)nc(N4CCOCC4)c3s2)CC1 [Pictilisib] (partner 1 µM)
Method in brief: as §1

[1] = compound: C1/C(=C\C2=CC=CS2)/C(=O)/C(=C/C3=CC=CS3)/C1 + CC1(C)CCC(c2ccc(Cl)cc2)=C(CN2CCN(c3ccc(C(=O)NS(=O)(=O)c4ccc(N[C@H](CCN5CCOCC5)CSc5ccccc5)c(S(=O)(=O)C(F)(F)F)c4)cc3)CC2)C1 [Navitoclax] (partner 0.5 µM)
Method in brief: as §1

Cell Line | relative viability (TPCA-1 + Luminespib; first compound 0.04 µM) | relative viability (TPCA-1 + Luminespib; first compound 0.1265 µM) | relative viability (TPCA-1 + Luminespib; first compound 0.4 µM) | relative viability (TPCA-1 + Luminespib; first compound 1.265 µM) | relative viability (TPCA-1 + Luminespib; first compound 4 µM) | relative viability (TPCA-1 + Pictilisib; first compound 0.04 µM) | relative viability (TPCA-1 + Pictilisib; first compound 0.1265 µM) | relative viability (TPCA-1 + Pictilisib; first compound 0.4 µM) | relative viability (TPCA-1 + Pictilisib; first compound 1.265 µM) | relative viability (TPCA-1 + Pictilisib; first compound 4 µM) | relative viability ([1]; first compound 0.2 µM) | relative viability ([1]; first compound 0.6325 µM) | relative viability ([1]; first compound 2 µM) | relative viability ([1]; first compound 6.325 µM) | relative viability ([1]; first compound 20 µM)
NCI-H727 | 0.531 | 0.453 | 0.439 | 0.487 | 0.432 | 0.389 | 0.249 | 0.35 | 0.28 | 0.222 | 0.528 | 0.426 | 0.503 | 0.302 | 0.391
NCI-H838 | 0.349 | 0.398 | 0.235 | 0.268 | 0.223 | 0.547 | 0.429 | 0.452 | 0.325 | 0.387 | 1.23 | 1.17 | 1.14 | 0.86 | 1.05
NCI-H1355 | 0.788 | 0.747 | 0.841 | 0.715 | 0.465 | 0.487 | 0.325 | 0.427 | 0.227 | 0.224 | 0.958 | 0.812 | 0.904 | 0.853 | 0.933
NCI-H1395 | 0.762 | 0.695 | 0.647 | 0.709 | 0.644 | 0.694 | 0.66 | 0.68 | 0.505 | 0.607 | 1.28 | 1.65 | 1.23 | 1.04 | 1.15
NCI-H1437 | 1.04 | 1.14 | 1.03 | 1.12 | 1.2 | 0.508 | 0.439 | 0.423 | 0.538 | 0.29 | 1.15 | 1.09 | 1.07 | 1.03 | 0.992
NCI-H1650 | 0.225 | – | 0.188 | 0.185 | 0.197 | 0.7 | 0.537 | 0.592 | 0.423 | 0.422 | 1.11 | 1.15 | 1.21 | 1.1 | 1.24
NCI-H1651 | 0.839 | 0.979 | 0.835 | 0.915 | 1 | 0.637 | 0.487 | 0.561 | 0.657 | 0.436 | 1.25 | 1.01 | 1.07 | – | 1.11
NCI-H1666 | 1.03 | 0.99 | 1.08 | 1.04 | 1.05 | 0.419 | 0.35 | 0.412 | 0.561 | 0.404 | 1.22 | 0.818 | 1.05 | 0.622 | 0.983
NCI-H1734 | 0.192 | 0.201 | 0.221 | 0.19 | 0.162 | 0.53 | 0.353 | 0.447 | 0.518 | 0.264 | 0.837 | 0.908 | 0.914 | 0.812 | 0.866
NCI-H1755 | 0.596 | 0.408 | 0.357 | 0.35 | 0.418 | 0.406 | 0.344 | 0.426 | 0.209 | 0.204 | 1.07 | 1.03 | 0.963 | 0.849 | 0.944
NCI-H1792 | 0.429 | 0.237 | 0.446 | 0.501 | 0.367 | 0.343 | 0.318 | 0.252 | 0.264 | 0.177 | 0.666 | 0.579 | 0.743 | – | 0.624
NCI-H1793 | 0.173 | – | 0.142 | 0.142 | 0.134 | 0.292 | 0.381 | 0.454 | 0.245 | 0.28 | 0.376 | 0.512 | 0.503 | 0.402 | 0.519
NCI-H1915 | 0.883 | 0.804 | 0.754 | 0.852 | 0.581 | 1.27 | 0.906 | 1.05 | 0.876 | 0.477 | 0.788 | 0.758 | 0.818 | 0.754 | 0.818
NCI-H1944 | 0.872 | 0.663 | 0.71 | 0.626 | 0.513 | 0.384 | 0.326 | 0.343 | 0.312 | 0.258 | 1.14 | 0.966 | 1.08 | 0.899 | 0.992
NCI-H1975 | 0.577 | 0.275 | 0.2 | 0.199 | 0.129 | 0.278 | 0.259 | 0.264 | 0.233 | 0.16 | 1.09 | 1.19 | 1.04 | 0.912 | 1.08
NCI-H1993 | 0.694 | 0.688 | 0.783 | 1.29 | 0.669 | 0.883 | – | 0.939 | 0.911 | 0.723 | 1.04 | 0.877 | 0.971 | 0.693 | 0.818
NCI-H2009 | 0.977 | 1.05 | 1.01 | 1.02 | 1.03 | 0.974 | 0.741 | 0.896 | 0.272 | 0.318 | 1.19 | 1.21 | 1.06 | 1.15 | 1.16
NCI-H2023 | 0.993 | 0.91 | 0.779 | 0.472 | 0.373 | 0.264 | 0.177 | 0.237 | 0.176 | 0.115 | 1.08 | 0.991 | 1.03 | 0.971 | 0.94
NCI-H2085 | 0.427 | 0.408 | 0.574 | 0.473 | 0.45 | 0.504 | 0.385 | 0.52 | 0.331 | 0.418 | 1.13 | 1.16 | 1.03 | 1.15 | 1.09
NCI-H2087 | 0.171 | 0.176 | 0.156 | 0.15 | 0.141 | 1.23 | 0.785 | 0.823 | 0.626 | 0.203 | 1.13 | 1.04 | 0.933 | 0.669 | 1.05
NCI-H2126 | 0.94 | 0.947 | 0.984 | 0.797 | 0.676 | 0.507 | 0.435 | 0.506 | 0.505 | 0.309 | 0.941 | 0.79 | 0.832 | 0.628 | 0.845
NCI-H2170 | 0.968 | 0.703 | 0.535 | 0.681 | 0.277 | 0.373 | 0.27 | 0.32 | 0.32 | 0.209 | 0.655 | 0.565 | 0.678 | 0.516 | 0.547

Reference: the supplement of paper PMC10307832
